For the first assay, the target named is T1, Brucella melitensis DAPDC (diaminopimelate decarboxylase) (Brucella melitensis, UniProt Q8YJJ9).
T1 construct: gene lysA
T1 sequence (Q8YJJ9 1-421): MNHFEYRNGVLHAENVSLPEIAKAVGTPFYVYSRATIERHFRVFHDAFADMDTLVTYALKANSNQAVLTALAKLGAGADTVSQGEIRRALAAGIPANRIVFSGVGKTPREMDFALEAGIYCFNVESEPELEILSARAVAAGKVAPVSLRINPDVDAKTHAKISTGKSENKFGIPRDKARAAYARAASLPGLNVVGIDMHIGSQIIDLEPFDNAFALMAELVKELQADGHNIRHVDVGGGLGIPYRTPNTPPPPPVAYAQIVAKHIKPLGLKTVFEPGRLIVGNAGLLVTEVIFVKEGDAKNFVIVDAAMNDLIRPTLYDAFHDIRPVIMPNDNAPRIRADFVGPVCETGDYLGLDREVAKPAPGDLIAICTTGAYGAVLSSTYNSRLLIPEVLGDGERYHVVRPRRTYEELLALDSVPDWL
Kind of assay: biochemical. Conditions: read-out: Inhibitory rate (%).
For the molecule `Cc1cccn2c(=O)c(-c3nn[nH]n3)cnc12` [SID5, S4008], the inhibition at 40 µM came to 63.1%.
Same read-out and setting: under `CCC(=O)c1c(O)cc(O)cc1O` [SID12, S4249] stands 49.2%.
`CO[C@H]1/C=C/O[C@@]2(C)Oc3c(C)c(O)c4c(O)c(c(/C=N/N5CCN(C)CC5)c(O)c4c3C2=O)NC(=O)/C(C)=C\C=C\[C@H](C)[C@H](O)[C@@H](C)[C@@H](O)[C@@H](C)[C@H](OC(C)=O)[C@@H]1C` [SID11, rifampin]: the inhibition at 40 µM was found to be 51.5%.
On the same count and under the same terms, next, `COc1cc(C2Oc3ccc(C4Oc5cc(O)cc(O)c5C(=O)C4O)cc3OC2CO)ccc1O` (stereo not drawn) [SID1, S2357]: 70.3%.
For `Cc1nc(Nc2ncc(C(=O)Nc3c(C)cccc3Cl)s2)cc(N2CCN(CCO)CC2)n1` [SID3, dasatinib monohydrate], the inhibition at 40 µM turned out to be 67.1%.
On to `C[C@H]1COc2c(N3CCN(C)CC3)c(F)cc3c(=O)c(C(=O)O)cn1c23` [SID7, levofloxacin], for which the inhibition at 40 µM was 55.3%.
For the molecule `CC1COc2c(N3CCN(C)CC3)c(F)cc3c(=O)c(C(=O)O)cn1c23` (stereo not drawn) [SID16, S1940], the inhibition at 40 µM is 46.7%.
For the molecule `CCN(CCO)CCCC(C)Nc1ccnc2cc(Cl)ccc12` (racemic) [SID6, S4430], the inhibition at 40 µM amounted to 56.1%.
For the molecule `CC(C)Nc1cc(-c2c[nH]c(C(=O)N[C@H](CO)c3cccc(Cl)c3)c2)c(Cl)cn1` [SID14, ulixertinib], the inhibition at 40 µM amounted to 47.3%.
With `COc1ccc(-c2nc3ccc(C4=NNC(=O)CC4C)cc3[nH]2)cc1` (stereo not drawn) [SID15, pimobendan], the inhibition at 40 µM turned out to be 46.8%.
`Nc1nc(=S)c2[nH]cnc2[nH]1` [SID2, S1774]: the inhibition at 40 µM worked out at 68.7%.
The same measure, in the same setting: next, `CC(=O)c1c(C)c2cnc(Nc3ccc(N4CCNCC4)cn3)nc2n(C2CCCC2)c1=O` [SID10, S1579]: 52.1%; `Cc1c(Cl)cccc1Nc1ccccc1C(=O)O` [SID20, tolfenamic acid]: 44%.
The same measure, in the same setting: under `CC(NC(C)(C)C)C(=O)c1cccc(Cl)c1` (racemic) [SID13, S2452] stands 47.7%.

The target of another assay is T2, Saccharomyces cerevisiae saccharopine dehydrogenase (SDH) (Saccharomyces cerevisiae, UniProt P38998).
T2 construct: gene LYS1; SDH coding gene in pET30a, Ni-NTA purified, expressed in E. coli BL21(DE3), about 41 kDa
T2 sequence (P38998 2-373): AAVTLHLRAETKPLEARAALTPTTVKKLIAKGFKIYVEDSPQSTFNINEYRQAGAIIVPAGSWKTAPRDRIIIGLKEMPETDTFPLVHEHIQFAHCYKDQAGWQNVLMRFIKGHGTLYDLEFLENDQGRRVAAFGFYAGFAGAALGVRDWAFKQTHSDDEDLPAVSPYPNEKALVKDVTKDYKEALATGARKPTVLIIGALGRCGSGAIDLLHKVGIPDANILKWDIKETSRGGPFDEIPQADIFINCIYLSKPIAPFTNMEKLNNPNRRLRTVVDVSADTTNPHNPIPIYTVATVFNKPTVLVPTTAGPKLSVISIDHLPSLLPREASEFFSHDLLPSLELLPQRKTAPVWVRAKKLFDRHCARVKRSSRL
Kind of assay: NADH oxidation, A340 endpoint. Conditions: 200 mM Tris pH 8.0, 600 μM NADH, α-ketoglutarate, room temperature, 15 min. It counts as biochemical.
As to `NCCCC[C@H](N)C(=O)O` [L-lysine], the “NADH oxidation, A340 endpoint” value was “Activity of SDH as a function of the concentration of L-lysine”.

Another assay addresses T1, Brucella melitensis DAPDC (diaminopimelate decarboxylase).
Assay: not given
As to conditions: 200 mM Tris-HCl pH 8.0, 4 mM α-ketoglutarate, 600 μM NADH, 0.1 mM PLP, excess SDH, DAP 0-20 mM, room temperature.
Regarding `NC(CCCC(N)C(=O)O)C(=O)O` (stereo not drawn) [DAP], the “DAPDC-SDH coupled assay, NADH A340 endpoint” value is “hyperbolic behavior of DAPDC activity as a function of DAP concentration”.

The target is the same in a further assay.
Assay: not given
Conditions: 40 µM.
For `CC(C)(C)C(=O)Oc1ccc(S(=O)(=O)Nc2ccccc2C(=O)NCC(=O)[O-])cc1.O.O.O.O.[Na+]` [SID9, S4666], the “Inhibitory rate (%)” value was 52.88%.
Regarding `O.O.O=C([O-])CCNC(=O)c1ccc(N=Nc2ccc([O-])c(C(=O)O)c2)cc1.[Na+].[Na+]` [SID8, S3745], the “Inhibitory rate (%)” value is 54.83%.

The values are drawn from paper PMC6986272 (Frontiers in Microbiology, 2020).
